# Experimental data: ChEMBL document CHEMBL1201862, “PubChem BioAssay data set” (2004)
#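 96-well plates; 48 h exposure; 5 concentrations. Endpoints by linear interpolation between flanking doses. Not reached: highest tested concentration assigned. GI50 marks 50% less growth.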 Calls of active or inactive are those of the source. No stated cut-off is given here; in the data, active = GI50 up to about 1.1 µM and inactive = higher.
# What was measured:
# Experiment in all cases: inhibition of tumour cell growth, NCI panel, 48 h
# A549 = system: A549
# CAKI-1 = system: CAKI-1
# HCC 2998 = system: HCC 2998
# LOX IMVI = system: LOX IMVI
# M14 = system: M14
# MDA-MB-231 = system: MDA-MB-231
# NCI-H226 = system: NCI-H226
# OVCAR-3 = system: OVCAR-3
# PC-3 = system: PC-3
# SF-268 = system: SF-268
# SK-MEL-2 = system: SK-MEL-2
# SK-OV-3 = system: SK-OV-3
# SN12C = system: SN12C
# SNB-19 = system: SNB-19
# UACC-257 = system: UACC-257
# RXF 393 = system: RXF 393
# MDA-N = system: MDA-N
# T47D = system: T47D
SMILES,GI50 (A549),GI50 (CAKI-1),GI50 (HCC 2998),GI50 (LOX IMVI),GI50 (M14),GI50 (MDA-MB-231),GI50 (NCI-H226),GI50 (OVCAR-3),GI50 (PC-3),GI50 (SF-268),GI50 (SK-MEL-2),GI50 (SK-OV-3),GI50 (SN12C),GI50 (SNB-19),GI50 (UACC-257),GI50 (RXF 393),GI50 (MDA-N),GI50 (T47D)
COc1ccc2c(c1)C(=O)CCc1cc(OC)c(OC)c(OC)c1-2,0.0687 µM (active),0.127 µM (active),0.0412 µM (active),0.0966 µM (active),0.0347 µM (active),0.166 µM (active),0.0258 µM (active),0.0409 µM (active),0.0474 µM (active),0.0948 µM (active),0.0818 µM (active),< 0.01 µM (active),0.0649 µM (active),0.051 µM (active),< 0.01 µM (active),,,
COc1ccc(CN(CCN(C)C)c2ccccn2)cc1.Cn1c(=O)c2[nH]c(Br)nc2n(C)c1=O,,> 100 µM (inactive),,,> 100 µM (inactive),,,> 100 µM (inactive),,> 100 µM (inactive),> 100 µM (inactive),> 100 µM (inactive),> 100 µM (inactive),> 100 µM (inactive),> 100 µM (inactive),,,
FC(F)(F)c1nc2cc(SSc3cc4nc(C(F)(F)F)[nH]c4cc3Cl)c(Cl)cc2[nH]1,> 100 µM (inactive),> 100 µM (inactive),> 100 µM (inactive),> 100 µM (inactive),> 100 µM (inactive),> 100 µM (inactive),53.3 µM (inactive),45.2 µM (inactive),> 100 µM (inactive),> 100 µM (inactive),> 100 µM (inactive),> 100 µM (inactive),> 100 µM (inactive),> 100 µM (inactive),93.1 µM (inactive),> 100 µM (inactive),,
Oc1cc(-c2ccc(Cl)cc2)cn2c1nc1ccccc12,,> 100 µM (inactive),,1.88 µM (inactive),> 100 µM (inactive),> 100 µM (inactive),> 100 µM (inactive),> 100 µM (inactive),> 100 µM (inactive),> 100 µM (inactive),,> 100 µM (inactive),> 100 µM (inactive),52.4 µM (inactive),> 100 µM (inactive),> 100 µM (inactive),2.99 µM (inactive),> 100 µM (inactive)
CC1(C)OP(=O)(O)C=C1Sc1ccc([N+](=O)[O-])cc1[N+](=O)[O-],> 100 µM (inactive),> 100 µM (inactive),> 100 µM (inactive),> 100 µM (inactive),> 100 µM (inactive),,> 100 µM (inactive),> 100 µM (inactive),> 100 µM (inactive),> 100 µM (inactive),> 100 µM (inactive),> 100 µM (inactive),> 100 µM (inactive),> 100 µM (inactive),> 100 µM (inactive),,> 100 µM (inactive),> 100 µM (inactive)
COc1ccc(/C=C2\NC(=S)N(CN3CCCCC3)C2=O)cc1,72.1 µM (inactive),,,30.5 µM (inactive),50.7 µM (inactive),> 100 µM (inactive),42.2 µM (inactive),71.6 µM (inactive),78.7 µM (inactive),18.2 µM (inactive),> 100 µM (inactive),> 100 µM (inactive),> 100 µM (inactive),37 µM (inactive),,,70.1 µM (inactive),
CCOC(=O)CCSS(=O)(=O)c1ccccc1,> 100 µM (inactive),> 100 µM (inactive),> 100 µM (inactive),23.3 µM (inactive),64.4 µM (inactive),,> 100 µM (inactive),> 100 µM (inactive),> 100 µM (inactive),,> 100 µM (inactive),> 100 µM (inactive),> 100 µM (inactive),> 100 µM (inactive),> 100 µM (inactive),> 100 µM (inactive),> 100 µM (inactive),> 100 µM (inactive)
N#Cc1cc(C#N)c(N)nc1N,> 100 µM (inactive),> 100 µM (inactive),> 100 µM (inactive),29.9 µM (inactive),> 100 µM (inactive),> 100 µM (inactive),> 100 µM (inactive),> 100 µM (inactive),> 100 µM (inactive),,> 100 µM (inactive),> 100 µM (inactive),> 100 µM (inactive),> 100 µM (inactive),> 100 µM (inactive),> 100 µM (inactive),> 100 µM (inactive),
CC(=O)Nc1ccc2cc(C)c(O)nc2n1,> 100 µM (inactive),> 100 µM (inactive),,,> 100 µM (inactive),75.7 µM (inactive),,,> 100 µM (inactive),> 100 µM (inactive),> 100 µM (inactive),> 100 µM (inactive),> 100 µM (inactive),> 100 µM (inactive),> 100 µM (inactive),25.9 µM (inactive),> 100 µM (inactive),> 100 µM (inactive)
COc1cc(OC)nc(NC(=O)NS(=O)(=O)c2cccc3ncn(C)c(=O)c23)n1,> 100 µM (inactive),> 100 µM (inactive),,> 100 µM (inactive),> 100 µM (inactive),> 100 µM (inactive),> 100 µM (inactive),> 100 µM (inactive),,> 100 µM (inactive),> 100 µM (inactive),> 100 µM (inactive),> 100 µM (inactive),> 100 µM (inactive),> 100 µM (inactive),> 100 µM (inactive),> 100 µM (inactive),> 100 µM (inactive)
C=C1CC2(CCCC3(CC(=C)C(=O)O3)C2(C)C)OC1=O (stereo not given),13.8 µM (inactive),2.7 µM (inactive),,1.69 µM (inactive),2.56 µM (inactive),4.95 µM (inactive),2.22 µM (inactive),1.96 µM (inactive),8.09 µM (inactive),19.2 µM (inactive),7.24 µM (inactive),20.5 µM (inactive),3.03 µM (inactive),17.3 µM (inactive),1.85 µM (inactive),3.86 µM (inactive),,3.33 µM (inactive)
COc1cc(/C=C2/SC(c3ccccc3)N(c3ccccc3)C2=O)cc(OC)c1OC (stereo not given),> 100 µM (inactive),> 100 µM (inactive),> 100 µM (inactive),69.5 µM (inactive),49.9 µM (inactive),> 100 µM (inactive),80.4 µM (inactive),65.6 µM (inactive),,> 100 µM (inactive),> 100 µM (inactive),35.8 µM (inactive),> 100 µM (inactive),> 100 µM (inactive),61.8 µM (inactive),23.7 µM (inactive),,36.2 µM (inactive)
Nc1nc2c(ncn2Cc2ccc(CO)cc2)c(=O)[nH]1,> 100 µM (inactive),> 100 µM (inactive),,> 100 µM (inactive),> 100 µM (inactive),> 100 µM (inactive),> 100 µM (inactive),> 100 µM (inactive),> 100 µM (inactive),> 100 µM (inactive),> 100 µM (inactive),> 100 µM (inactive),> 100 µM (inactive),> 100 µM (inactive),> 100 µM (inactive),> 100 µM (inactive),,> 100 µM (inactive)
N#C/N=C1/c2ccccc2/C(=N/C#N)c2cc(CO)ccc21,20.9 µM (inactive),25.3 µM (inactive),,30.5 µM (inactive),48.2 µM (inactive),71.4 µM (inactive),37.8 µM (inactive),26.9 µM (inactive),33.7 µM (inactive),39.2 µM (inactive),61.2 µM (inactive),,24.8 µM (inactive),51.8 µM (inactive),26.6 µM (inactive),27.6 µM (inactive),36.6 µM (inactive),31.6 µM (inactive)
CCN(CC)C(=O)N1CN(c2ccccc2)C2(CCN(CCCC3(c4ccc(F)cc4)OCCO3)CC2)C1=O,29.3 µM (inactive),> 100 µM (inactive),14.5 µM (inactive),12.7 µM (inactive),40.2 µM (inactive),,30.5 µM (inactive),16.4 µM (inactive),17.5 µM (inactive),20.6 µM (inactive),14.8 µM (inactive),24.4 µM (inactive),16.9 µM (inactive),30.3 µM (inactive),12.4 µM (inactive),14.7 µM (inactive),19.1 µM (inactive),5.9 µM (inactive)
CCOC(=O)C1=C(C)N(Cc2ccc(Cl)cc2Cl)C2(O)C=CC(=O)C3C(=O)N(c4ccccc4)C(=O)C132 (stereo not given),2.11 µM (inactive),3.02 µM (inactive),1.71 µM (inactive),0.682 µM (active),3.27 µM (inactive),2.1 µM (inactive),1.54 µM (inactive),1.37 µM (inactive),1.5 µM (inactive),2.38 µM (inactive),1.77 µM (inactive),,1.91 µM (inactive),1.88 µM (inactive),2.2 µM (inactive),1.32 µM (inactive),,1.55 µM (inactive)
CSc1c(C(N)=S)c(N)nn1-c1ccccc1,> 100 µM (inactive),> 100 µM (inactive),> 100 µM (inactive),> 100 µM (inactive),> 100 µM (inactive),> 100 µM (inactive),> 100 µM (inactive),> 100 µM (inactive),> 100 µM (inactive),> 100 µM (inactive),> 100 µM (inactive),> 100 µM (inactive),> 100 µM (inactive),> 100 µM (inactive),> 100 µM (inactive),> 100 µM (inactive),,> 100 µM (inactive)
